The record followed here is ChEMBL document CHEMBL1156774, “Design of O-acetylserine sulfhydrylase inhibitors by mimicking nature” (J Med Chem, 2010).

Assay [1] has as its target T1, Cysteine synthase (Haemophilus influenzae (strain ATCC 51907 / DSM 11121 / KW20 / Rd)) (UniProt P45040).
T1 sequence (whole entry): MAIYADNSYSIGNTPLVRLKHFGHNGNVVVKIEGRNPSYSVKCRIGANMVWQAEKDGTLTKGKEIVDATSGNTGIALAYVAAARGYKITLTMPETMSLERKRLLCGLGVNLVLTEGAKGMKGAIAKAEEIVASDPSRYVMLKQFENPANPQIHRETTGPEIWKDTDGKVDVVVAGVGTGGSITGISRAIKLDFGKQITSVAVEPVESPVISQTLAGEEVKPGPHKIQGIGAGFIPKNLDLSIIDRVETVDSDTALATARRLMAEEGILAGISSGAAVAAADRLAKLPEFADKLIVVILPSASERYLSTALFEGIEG
Nature of the assay: (§1) Binding affinity to Haemophilus influenzae O-acetylserine sulfhydrylase expressed in Escherichia coli BL21 (DE3) by fluorescence emission spectra analysis.

Another assay concerns the target T2, Cysteine synthase (Haemophilus influenzae (strain ATCC 51907 / DSM 11121 / KW20 / Rd), UniProt P45040).
T2 sequence (P45040 whole entry): T1 sequence (whole entry)
The assay is described as §1.

The term Kd denotes the equilibrium constant for the complex coming apart. H-MNLGI-OH showed a Kdiss in assay [1] of 570 µM. This substance showed a dissociation constant (Kd) on Cysteine synthase of 575 µM.
Taken in the same sequence, the figures for H-MNVPI-OH were 3330 µM and 3310 µM.
For H-MNYSI-OH the same measures were 60.8 µM and 60.3 µM.
For H-MNDGI-OH the same measures were 1030 µM and 1020 µM.
H-MNEGI-OH had a Kdiss in assay [1] of 2270 µM. The substance also gave an equilibrium dissociation constant (Kd) at Cysteine synthase of 2290 µM.
